Data on 43 compounds can be found in US8916702B2 (priority 2012, dated 2014).

Like-named read-outs stand apart in the source and are kept apart here.

The assay relates to HCV pseudoparticles (genotype 1a HCV E1 and E2 envelope, H77C isolate). Briefly: microbe, parasite or virus in culture. To be noted: Hepatitis C virus. It is filed as cell-based.
Where [1] appears, read: Huh-7, 48 h, read-out: Activity (EC50 class), HCV pseudoparticles, Huh7 cells, luciferase 2 days after infection, average of duplicates.
Setting [2] is: Huh-7, 48 h, HCV pseudoparticles (genotype 1a, H77C) in Huh7 cells, average of duplicate, luciferase 2 days after infection.
Setting [3] is: Huh-7, read-out: Activity (EC50 class), HCV pseudoparticles (genotype 1a, H77C) in Huh7 cells, EC50 expressed as class A/B.
[4] abbreviates: Huh-7, 48 h, read-out: Activity (EC50 class), HCV pseudoparticle infection of Huh7 cells, luciferase 2 days after infection, EC50 expressed as class A/B.
Where [5] appears, read: Huh-7, 48 h, HCV pseudoparticle infection of Huh7 cells, luciferase 2 days after infection, average of duplicates.

Regarding `O=C(NC[C@H](NC(=O)c1ccc(Nc2nc(NC3(c4ccc(Cl)cc4)CC3)nc(OCC(F)(F)F)n2)cc1)C(=O)O)C(=O)Nc1cccc(-c2cnco2)c1` [Compound 3752], the half-maximal effective concentration (EC50) under setting [1] was 0.01 to 10 nM. Regarding `CC(C)(CNC(=O)C(=O)NC1(c2ccc(F)cc2)CC1)CNC(=O)c1ccc(Nc2nc(NC3(c4ccc(Cl)cc4)CC3)nc(OCC(F)(F)F)n2)cc1` [Compound 3013], the half-maximal effective concentration (EC50) runs as follows: under setting [2], 0.066 nM; under setting [3], 0.01 to 10 nM. Regarding `CC(C)(CNC(=O)C(=O)Nc1ccc2c(c1)oc1ccccc12)CNC(=O)c1ccc(Nc2nc(NC3(c4ccc(Cl)cc4)CC3)nc(OCC(F)(F)F)n2)cc1` [Compound 1577], under setting [4], the EC50 fell in the range of 0.01 to 10 nM.

In the case of `O=C(NCC[C@H](NC(=O)c1ccc(Nc2nc(NC3(c4ccc(Cl)cc4)CC3)nc(OCC(F)(F)F)n2)cc1)C(=O)O)C(=O)Nc1ccc(C2=CCC(N3CCOCC3)=N2)cc1` [Compound 3539], the EC50 under setting [3] lay in the range of 10 to 1000 nM. Turning to `COC(=O)[C@H](CNC(=O)C(=O)NCCc1cccnc1)NC(=O)c1ccc(Nc2nc(NC3(c4ccc(Cl)cc4)CC3)nc(OCC(F)(F)F)n2)cc1` [Compound 1293], the EC50 reads like this: under setting [5], 4.4 nM; under setting [4], 0.01 to 10 nM. Regarding `O=C(NCC[C@H](NC(=O)c1ccc(Nc2nc(NC3(c4ccc(Cl)cc4)CC3)nc(OCC(F)(F)F)n2)cc1)C(=O)O)C(=O)Nc1cc(F)cc(F)c1` [Compound 1507], the 50% effective concentration (EC50) under setting [4] fell in the range of 0.01 to 10 nM. Take `Cc1cc(NC(=O)C(=O)NCCNC(=O)c2ccc(Nc3nc(NC4(c5ccc(Cl)cc5)CC4)nc(OCC(F)(F)F)n3)cc2)no1` [Compound 3372]: under setting [3], the concentration giving a half-maximal response (EC50) is 0.01 to 10 nM. On the same count and under the same terms, the same measure for `Cc1cc(C)n(-c2ccc(NC(=O)C(=O)NC/C(=N/C(=O)c3ccc(Nc4nc(NC5(c6ccc(Cl)cc6)CC5)nc(OCC(F)(F)F)n4)cc3)C(=O)O)cc2)n1` [Compound 3174]: 0.01 to 10 nM.

Consider `O=C(Nc1ccc(C(=O)O)cc1)C(=O)NC1CCCC1CNC(=O)c1ccc(Nc2nc(NC3(c4ccc(Cl)cc4)CC3)nc(OCC(F)(F)F)n2)cc1` (centres unmarked) [Compound 1464], for which the 50% effective concentration (EC50) is 0.48 nM under setting [5] and 0.01 to 10 nM under setting [4].

Take `Cc1ccc(NC(=O)C(=O)NCC(C)(C)CNC(=O)c2ccc(Nc3nc(NC4(c5ccc(Cl)cc5)CC4)nc(OCc4ccccc4)n3)cc2)cc1` [Compound 3843]: the EC50 under setting [1] lay in the range of 0.01 to 10 nM. Same read-out and setting: for `CC(C)c1ccc(COc2nc(Nc3ccc(C(=O)NCC(C)(C)CNC(=O)C(=O)Nc4ccc(F)cc4F)c(F)c3)nc(NC3(c4ccc(Cl)cc4)CC3)n2)cc1` [Compound 3835, N^1-(3-(4-((4-((1-(4-chlorophenyl)cyclopropyl)amino)-6-((4-isopropylbenzyl)oxy)-1,3,5-triazin-2-yl)amino)-2-fluorobenzamido)-2,2-dimethylpropyl)-N^2-(2,4-difluorophenyl)oxalamide] the value was 0.01 to 10 nM. Take `Cn1cnnc1-c1ccc(NC(=O)C(=O)NC[C@H](NC(=O)c2ccc(Nc3nc(NC4(c5ccc(Cl)cc5)CC4)nc(OCC(F)(F)F)n3)cc2)C(=O)O)cc1` [Compound 3283]: the EC50 under setting [3] lay within 0.01 to 10 nM.

Consider `Cc1cc(C)n(CC2(CNC(=O)C(=O)NCC[C@H](NC(=O)c3ccc(Nc4nc(NC5(c6ccc(Cl)cc6)CC5)nc(OCC(F)(F)F)n4)cc3)C(=O)O)CC2)n1` [Compound 1427], for which the EC50 under setting [4] was 0.01 to 10 nM. For `Cn1nccc1NC(=O)C(=O)NCC(C)(C)CNC(=O)c1ccc(Nc2nc(NC3(c4ccc(Cl)cc4)CC3)nc(OCC(F)(F)F)n2)cc1` [Compound 3036], under setting [3], the concentration for a half-maximal effect (EC50) lay within 0.01 to 10 nM. Consider `CN(CCCN(C)C(=O)c1ccc(Nc2nc(NC3(c4ccc(Cl)cc4)CC3)nc(OCC(F)(F)F)n2)cc1)C(=O)C(N)=O` [Compound 3411], for which the 50% effective concentration (EC50) under setting [3] was in the range of 0.01 to 10 nM. Same read-out and setting: the same measure for `Cc1ccc(NC(=O)C(=O)NCC(O)CNC(=O)c2ccc(Nc3nc(NC4(c5ccc(Cl)cc5)CC4)nc(OCC(F)(F)F)n3)cc2)cc1Cl` (centres unmarked) [Compound 3466]: 0.01 to 10 nM.

As for `O=C(NCCNC(=O)c1ccc(Nc2nc(NC3(c4ccc(Cl)cc4)CC3)nc(OCC(F)(F)F)n2)cc1)C(=O)Nc1ccc(F)cc1` [Compound 3373], the concentration giving a half-maximal response (EC50) runs as follows: under setting [2], 0.052 nM; under setting [3], 0.01 to 10 nM. Regarding `COC(=O)[C@H](CCNC(=O)C(=O)Nn1cnnc1)NC(=O)c1ccc(Nc2nc(NC3(c4ccc(Cl)cc4)CC3)nc(OCC(F)(F)F)n2)cc1` [Compound 1219], the 50% effective concentration (EC50) under setting [4] was 10 to 1000 nM. For the compound `O=C(NCC(O)CNC(=O)c1ccc(Nc2nc(NC3(c4ccc(Cl)cc4)CC3)nc(OCC(F)(F)F)n2)cc1)C(=O)N1CCc2ccccc2C1` (centres unmarked) [Compound 3464], the EC50 under setting [3] lay in the range of 0.01 to 10 nM. On to `Cc1ccc(NC(=O)C(=O)NC[C@H](NC(=O)c2ccc(Nc3nc(NC4(c5ccc(Cl)cc5)CC4)nc(OCC(F)(F)F)n3)cc2)C(=O)O)cc1` [Compound 1360], for which, under setting [4], the half-maximal effective concentration (EC50) fell in the range of 0.01 to 10 nM. Same read-out and setting: for `CC(C)(CNC(=O)C(=O)Nc1ccc(C2CCCCC2)cc1)CNC(=O)c1ccc(Nc2nc(NC3(c4ccc(Cl)cc4)CC3)nc(OCC(F)(F)F)n2)cc1` [Compound 1584] the value was 0.01 to 10 nM.

Turning to `COc1ccc(NC(=O)C(=O)NCC(C)(C)CNC(=O)c2ccc(Nc3nc(NC4(c5ccc(Cl)cc5)CC4)nc(OCc4ccc(C(C)C)cc4)n3)cc2F)cc1` [Compound 3828], the EC50 runs as follows: (Huh-7, 48 h, HCV pseudoparticles, Huh7 cells, luciferase 2 days after infection, average of duplicates) 0.35 nM; under setting [1], 0.01 to 10 nM. Regarding `O=C(NCc1ccccc1)C(=O)NC[C@H](NC(=O)c1ccc(Nc2nc(NC3(c4ccc(Cl)cc4)CC3)nc(OCC(F)(F)F)n2)cc1)C(=O)O` [Compound 1164], the EC50 under setting [4] was 0.01 to 10 nM. For the compound `COC(=O)[C@@H](CCNC(=O)C(=O)Nc1ccc(Oc2cccnc2)nc1)NC(=O)c1ccc(Nc2nc(NC3(c4ccc(Cl)cc4)CC3)nc(OCC(F)(F)F)n2)cc1` [Compound 3582], the response under setting [2] was half-maximal at 8.95 nM (EC50) and the concentration giving a half-maximal response (EC50) under setting [3] is 0.01 to 10 nM. `CC(C)(CNC(=O)C(=O)Nc1cccc(C(F)(F)F)c1)CNC(=O)c1ccc(Nc2nc(NC3(c4ccc(Cl)cc4)CC3)nc(OCC(F)(F)F)n2)cc1` [Compound 3019]: the 50% effective concentration (EC50) under setting [3] lay within 0.01 to 10 nM. Turning to `O=C(NC[C@H](NC(=O)c1ccc(Nc2nc(NC3(c4ccc(Cl)cc4)CC3)nc(OCC(F)(F)F)n2)cc1)C(=O)O)C(=O)Nc1ccc(Cn2cncn2)cc1` [Compound 3267], the EC50 under setting [3] lay within 0.01 to 10 nM. On the same count and under the same terms, for `CC(C)(CNC(=O)c1ccc(Nc2nc(NC3(c4ccc(Cl)cc4)CC3)nc(OCC(F)(F)F)n2)cc1)NC(=O)C(N)=O` [Compound 3420] the value was 0.01 to 10 nM. On to `Cn1ccnc1NC(=O)C(=O)NCC(C)(C)CNC(=O)c1ccc(Nc2nc(NC3(c4ccc(Cl)cc4)CC3)nc(OCC(F)(F)F)n2)cc1` [Compound 3379], for which the EC50 reads like this: under setting [2], 0.14 nM; under setting [3], 0.01 to 10 nM.

For `COC(=O)[C@@H](CCNC(=O)C(=O)NCC1CC1c1ccc(F)cc1)NC(=O)c1ccc(Nc2nc(NC3(c4ccc(Cl)cc4)CC3)nc(OCC(F)(F)F)n2)cc1` (some centres unmarked) [Compound 1389], the EC50 under setting [4] was 0.01 to 10 nM. Consider `COC(=O)[C@H](CNC(=O)C(=O)Nc1ccc(-n2ccc(C(F)(F)F)n2)cc1)NC(=O)c1ccc(Nc2nc(NC3(c4ccc(Cl)cc4)CC3)nc(OCC(F)(F)F)n2)cc1` [Compound 3098], for which the 50% effective concentration (EC50) under setting [3] fell in the range of 0.01 to 10 nM. Take `COC(=O)[C@H](CCNC(=O)C(=O)NCC1CCCOC1)NC(=O)c1ccc(Nc2nc(NC3(c4ccc(Cl)cc4)CC3)nc(OCC(F)(F)F)n2)cc1` (some centres unmarked) [Compound 1198]: under setting [4], the EC50 lay in the range of 0.01 to 10 nM. The same measure, in the same setting: the same measure for `O=C(NCC[C@H](NC(=O)c1ccc(Nc2nc(NC3(c4ccc(Cl)cc4)CC3)nc(OCC(F)(F)F)n2)cc1)C(=O)O)C(=O)NCC1CCCc2ccccc21` (some centres unmarked) [Compound 1343]: 0.01 to 10 nM; for `COC(=O)[C@H](CCNC(=O)C(=O)Nc1ccc(-c2ccncc2)cc1)NC(=O)c1ccc(Nc2nc(NC3(c4ccc(Cl)cc4)CC3)nc(OCC(F)(F)F)n2)cc1` [Compound 1517]: 0.01 to 10 nM. As for `CC(C)(CNC(=O)C(=O)Nc1nc2ccc(O)cc2s1)CNC(=O)c1ccc(Nc2nc(NC3(c4ccc(Cl)cc4)CC3)nc(OCC(F)(F)F)n2)cc1F` [Compound 3676], the EC50 under setting [1] was 0.01 to 10 nM. On to `CC(CNC(=O)C(=O)NC[C@H](NC(=O)c1ccc(Nc2nc(NC3(c4ccc(Cl)cc4)CC3)nc(OCC(F)(F)F)n2)cc1)C(=O)O)c1ccccc1` (some centres unmarked) [Compound 1395], for which the concentration giving a half-maximal response (EC50) under setting [4] lay in the range of 0.01 to 10 nM. Same read-out and setting: for `COC(=O)[C@H](CNC(=O)C(=O)NCc1ccc(F)c(F)c1)NC(=O)c1ccc(Nc2nc(NC3(c4ccc(Cl)cc4)CC3)nc(OCC(F)(F)F)n2)cc1` [Compound 1136] the value was 0.01 to 10 nM. On to `Cc1ccc(NC(=O)C(=O)NCCNC(=O)c2ccc(Nc3nc(NC4(c5ccc(Cl)cc5)CC4)nc(OCC(F)(F)F)n3)cc2)cc1` [Compound 3371], for which the EC50 under setting [3] is 0.01 to 10 nM. With `COc1cccc(CCNC(=O)C(=O)NCC[C@H](NC(=O)c2ccc(Nc3nc(NC4(c5ccc(Cl)cc5)CC4)nc(OCC(F)(F)F)n3)cc2)C(=O)O)c1` [Compound 1330], under setting [4], the EC50 was in the range of 0.01 to 10 nM. For the compound `CC(C)(CNC(=O)C(=O)Nc1cccc2ccccc12)CNC(=O)c1ccc(Nc2nc(NC3(c4ccc(Cl)cc4)CC3)nc(OCC(F)(F)F)n2)cc1` [Compound 3030], the 50% effective concentration (EC50) under setting [3] fell in the range of 0.01 to 10 nM.

For `CC(C)OC(=O)c1ccc(-c2ccc(NC(=O)C(=O)NCC(C)(C)CNC(=O)c3ccc(Nc4nc(NC5(c6ccc(Cl)cc6)CC5)nc(OCC(F)(F)F)n4)cc3)cc2)cc1` [Compound 1488], the EC50 under setting [4] lay within 0.01 to 10 nM. Regarding `C[C@H]1[C@@H](NC(=O)C(=O)NC[C@H](NC(=O)c2ccc(Nc3nc(NC4(c5ccc(Cl)cc5)CC4)nc(OCC(F)(F)F)n3)cc2)C(=O)O)C[C@H]2C[C@@H]1C2(C)C` [Compound 1094], the EC50 under setting [4] was in the range of 0.01 to 10 nM. Same read-out and setting: for `COC1CCCCC1CNC(=O)C(=O)NCC[C@H](NC(=O)c1ccc(Nc2nc(NC3(c4ccc(Cl)cc4)CC3)nc(OCC(F)(F)F)n2)cc1)C(=O)O` (some centres unmarked) [Compound 1182] the value was 0.01 to 10 nM. As for `CC(CNC(=O)C(=O)N1CCCCC1)CNC(=O)c1ccc(Nc2nc(NC3(c4ccc(Cl)cc4)CC3)nc(OCC(F)(F)F)n2)cc1` (centres unmarked) [Compound 3475], under setting [3], the EC50 lay in the range of 0.01 to 10 nM.

As usually defined, the EC50 is the concentration giving half of the maximal effect.
